Experimental data from PubChem BioAssay (NCI).
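All cell lines were grown in 96-well plates and treated with compound for 48 hours. At the TGI there is no net growth.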

What was measured:
Assay in all cases: NCI-60 cell line screen, 48 h
786-0 renal = test system: 786-0 renal
A498 renal = test system: A498 renal
A549 NSCLC = test system: A549 NSCLC
ACHN renal = test system: ACHN renal
BT-549 breast = test system: BT-549 breast
CCRF-CEM leukemia = test system: CCRF-CEM leukemia
COLO 205 colon = test system: COLO 205 colon
DU-145 prostate = test system: DU-145 prostate
EKVX NSCLC = test system: EKVX NSCLC
HCC-2998 colon = test system: HCC-2998 colon
HCT-116 colon = test system: HCT-116 colon
HCT-15 colon = test system: HCT-15 colon
HL-60(TB) leukemia = test system: HL-60(TB) leukemia
HOP-62 NSCLC = test system: HOP-62 NSCLC
HOP-92 NSCLC = test system: HOP-92 NSCLC
HS 578T breast = test system: HS 578T breast
HT29 colon = test system: HT29 colon
IGROV1 ovarian = test system: IGROV1 ovarian
K-562 leukemia = test system: K-562 leukemia
KM12 colon = test system: KM12 colon
M14 melanoma = test system: M14 melanoma
MALME-3M melanoma = test system: MALME-3M melanoma
MCF7 breast = test system: MCF7 breast
MDA-MB-231 breast = test system: MDA-MB-231 breast
MDA-MB-435 = test system: MDA-MB-435
MDA-N = test system: MDA-N
MOLT-4 leukemia = test system: MOLT-4 leukemia
NCI-H226 lung = test system: NCI-H226 lung
NCI-H23 lung = test system: NCI-H23 lung
NCI-H460 lung = test system: NCI-H460 lung
NCI-H522 lung = test system: NCI-H522 lung
NCI/ADR-RES ovarian = test system: NCI/ADR-RES ovarian
OVCAR-3 ovarian = test system: OVCAR-3 ovarian
OVCAR-4 ovarian = test system: OVCAR-4 ovarian
OVCAR-5 ovarian = test system: OVCAR-5 ovarian
OVCAR-8 ovarian = test system: OVCAR-8 ovarian
PC-3 prostate = test system: PC-3 prostate
RPMI-8226 leukemia = test system: RPMI-8226 leukemia
RXF 393 renal = test system: RXF 393 renal
SF-268 CNS = test system: SF-268 CNS
SF-295 CNS = test system: SF-295 CNS
SF-539 CNS = test system: SF-539 CNS
SK-MEL-2 melanoma = test system: SK-MEL-2 melanoma
SK-MEL-28 melanoma = test system: SK-MEL-28 melanoma
SK-MEL-5 melanoma = test system: SK-MEL-5 melanoma
SK-OV-3 ovarian = test system: SK-OV-3 ovarian
SN12C renal = test system: SN12C renal
SNB-19 CNS = test system: SNB-19 CNS
SNB-75 CNS = test system: SNB-75 CNS
SW-620 colon = test system: SW-620 colon
T-47D breast = test system: T-47D breast
TK-10 renal = test system: TK-10 renal
U251 CNS = test system: U251 CNS
UACC-257 melanoma = test system: UACC-257 melanoma
UACC-62 melanoma = test system: UACC-62 melanoma
UO-31 renal = test system: UO-31 renal
CAKI-1 renal = test system: CAKI-1 renal
LOX IMVI melanoma = test system: LOX IMVI melanoma
SR leukemia = test system: SR leukemia

Compound: Clc1[nH]nc2ccccc12
- TGI (786-0 renal): > 100 µM
- TGI (A498 renal): > 100 µM
- TGI (A549 NSCLC): > 100 µM
- TGI (ACHN renal): > 100 µM
- TGI (BT-549 breast): > 100 µM
- TGI (CCRF-CEM leukemia): > 100 µM
- TGI (COLO 205 colon): > 100 µM
- TGI (DU-145 prostate): > 100 µM
- TGI (EKVX NSCLC): > 100 µM
- TGI (HCC-2998 colon): > 100 µM
- TGI (HCT-116 colon): > 100 µM
- TGI (HCT-15 colon): > 100 µM
- TGI (HL-60(TB) leukemia): > 100 µM
- TGI (HOP-62 NSCLC): > 100 µM
- TGI (HOP-92 NSCLC): > 100 µM
- TGI (HS 578T breast): > 100 µM
- TGI (HT29 colon): > 100 µM
- TGI (IGROV1 ovarian): > 100 µM
- TGI (K-562 leukemia): > 100 µM
- TGI (KM12 colon): > 100 µM
- TGI (M14 melanoma): > 100 µM
- TGI (MALME-3M melanoma): > 100 µM
- TGI (MCF7 breast): > 100 µM
- TGI (MDA-MB-231 breast): > 100 µM
- TGI (MDA-MB-435): > 100 µM
- TGI (MDA-N): > 100 µM
- TGI (MOLT-4 leukemia): > 100 µM
- TGI (NCI-H226 lung): > 100 µM
- TGI (NCI-H23 lung): > 100 µM
- TGI (NCI-H460 lung): > 100 µM
- TGI (NCI-H522 lung): > 100 µM
- TGI (NCI/ADR-RES ovarian): > 100 µM
- TGI (OVCAR-3 ovarian): > 100 µM
- TGI (OVCAR-4 ovarian): > 100 µM
- TGI (OVCAR-5 ovarian): > 100 µM
- TGI (OVCAR-8 ovarian): > 100 µM
- TGI (PC-3 prostate): > 100 µM
- TGI (RPMI-8226 leukemia): > 100 µM
- TGI (RXF 393 renal): > 100 µM
- TGI (SF-268 CNS): > 100 µM
- TGI (SF-295 CNS): > 100 µM
- TGI (SF-539 CNS): > 100 µM
- TGI (SK-MEL-2 melanoma): > 100 µM
- TGI (SK-MEL-28 melanoma): > 100 µM
- TGI (SK-MEL-5 melanoma): > 100 µM
- TGI (SK-OV-3 ovarian): > 100 µM
- TGI (SN12C renal): > 100 µM
- TGI (SNB-19 CNS): > 100 µM
- TGI (SNB-75 CNS): > 100 µM
- TGI (SW-620 colon): > 100 µM
- TGI (T-47D breast): > 100 µM
- TGI (TK-10 renal): > 100 µM
- TGI (U251 CNS): > 100 µM
- TGI (UACC-257 melanoma): > 100 µM
- TGI (UACC-62 melanoma): > 100 µM
- TGI (UO-31 renal): > 100 µM

Compound: [N-]=[N+]=CC(=O)C1CCN(c2ccccc2)C1=O (stereo not drawn)
- TGI (786-0 renal): > 10 µM
- TGI (A498 renal): > 10 µM
- TGI (A549 NSCLC): > 10 µM
- TGI (ACHN renal): > 10 µM
- TGI (BT-549 breast): > 10 µM
- TGI (CAKI-1 renal): > 10 µM
- TGI (CCRF-CEM leukemia): > 10 µM
- TGI (COLO 205 colon): > 10 µM
- TGI (DU-145 prostate): > 10 µM
- TGI (EKVX NSCLC): > 10 µM
- TGI (HCC-2998 colon): > 10 µM
- TGI (HCT-116 colon): > 10 µM
- TGI (HCT-15 colon): > 10 µM
- TGI (HL-60(TB) leukemia): > 10 µM
- TGI (HOP-62 NSCLC): > 10 µM
- TGI (HS 578T breast): > 10 µM
- TGI (HT29 colon): > 10 µM
- TGI (IGROV1 ovarian): > 10 µM
- TGI (K-562 leukemia): > 10 µM
- TGI (KM12 colon): > 10 µM
- TGI (LOX IMVI melanoma): > 10 µM
- TGI (M14 melanoma): > 10 µM
- TGI (MALME-3M melanoma): > 10 µM
- TGI (MCF7 breast): > 10 µM
- TGI (MDA-MB-231 breast): > 10 µM
- TGI (MDA-MB-435): > 10 µM
- TGI (MDA-N): > 10 µM
- TGI (MOLT-4 leukemia): > 10 µM
- TGI (NCI-H226 lung): > 10 µM
- TGI (NCI-H23 lung): > 10 µM
- TGI (NCI-H460 lung): > 10 µM
- TGI (NCI/ADR-RES ovarian): > 10 µM
- TGI (OVCAR-3 ovarian): > 10 µM
- TGI (OVCAR-4 ovarian): > 10 µM
- TGI (OVCAR-5 ovarian): > 10 µM
- TGI (OVCAR-8 ovarian): > 10 µM
- TGI (PC-3 prostate): > 10 µM
- TGI (RPMI-8226 leukemia): > 10 µM
- TGI (RXF 393 renal): > 10 µM
- TGI (SF-268 CNS): > 10 µM
- TGI (SF-295 CNS): > 10 µM
- TGI (SF-539 CNS): > 10 µM
- TGI (SK-MEL-2 melanoma): > 10 µM
- TGI (SK-MEL-28 melanoma): > 10 µM
- TGI (SK-MEL-5 melanoma): > 10 µM
- TGI (SK-OV-3 ovarian): > 10 µM
- TGI (SN12C renal): > 10 µM
- TGI (SNB-19 CNS): > 10 µM
- TGI (SR leukemia): > 10 µM
- TGI (SW-620 colon): > 10 µM
- TGI (T-47D breast): > 10 µM
- TGI (TK-10 renal): > 10 µM
- TGI (U251 CNS): > 10 µM
- TGI (UACC-257 melanoma): > 10 µM
- TGI (UACC-62 melanoma): > 10 µM
- TGI (UO-31 renal): > 10 µM

Compound: Cc1cc(OC2OC(CO)C(O)C(O)C2O)ccc1O (stereo not drawn)
- TGI (786-0 renal): > 100 µM
- TGI (A498 renal): > 100 µM
- TGI (A549 NSCLC): > 100 µM
- TGI (ACHN renal): > 100 µM
- TGI (BT-549 breast): > 100 µM
- TGI (CAKI-1 renal): > 100 µM
- TGI (CCRF-CEM leukemia): > 100 µM
- TGI (COLO 205 colon): > 100 µM
- TGI (EKVX NSCLC): > 100 µM
- TGI (HCC-2998 colon): > 100 µM
- TGI (HCT-116 colon): > 100 µM
- TGI (HCT-15 colon): > 100 µM
- TGI (HL-60(TB) leukemia): > 100 µM
- TGI (HOP-62 NSCLC): > 100 µM
- TGI (HOP-92 NSCLC): > 100 µM
- TGI (HS 578T breast): > 100 µM
- TGI (HT29 colon): > 100 µM
- TGI (IGROV1 ovarian): > 100 µM
- TGI (K-562 leukemia): > 100 µM
- TGI (KM12 colon): > 100 µM
- TGI (LOX IMVI melanoma): > 100 µM
- TGI (M14 melanoma): > 100 µM
- TGI (MALME-3M melanoma): > 100 µM
- TGI (MCF7 breast): > 100 µM
- TGI (MDA-MB-231 breast): > 100 µM
- TGI (MDA-MB-435): > 100 µM
- TGI (MDA-N): > 100 µM
- TGI (MOLT-4 leukemia): > 100 µM
- TGI (NCI-H23 lung): > 100 µM
- TGI (NCI-H460 lung): > 100 µM
- TGI (NCI-H522 lung): > 100 µM
- TGI (NCI/ADR-RES ovarian): > 100 µM
- TGI (OVCAR-3 ovarian): > 100 µM
- TGI (OVCAR-4 ovarian): > 100 µM
- TGI (OVCAR-5 ovarian): > 100 µM
- TGI (OVCAR-8 ovarian): > 100 µM
- TGI (PC-3 prostate): > 100 µM
- TGI (RPMI-8226 leukemia): > 100 µM
- TGI (RXF 393 renal): > 100 µM
- TGI (SF-268 CNS): > 100 µM
- TGI (SF-295 CNS): > 100 µM
- TGI (SF-539 CNS): > 100 µM
- TGI (SK-MEL-2 melanoma): > 100 µM
- TGI (SK-MEL-28 melanoma): > 100 µM
- TGI (SK-MEL-5 melanoma): > 100 µM
- TGI (SK-OV-3 ovarian): > 100 µM
- TGI (SN12C renal): > 100 µM
- TGI (SNB-19 CNS): > 100 µM
- TGI (SNB-75 CNS): > 100 µM
- TGI (SW-620 colon): > 100 µM
- TGI (T-47D breast): > 100 µM
- TGI (TK-10 renal): > 100 µM
- TGI (U251 CNS): > 100 µM
- TGI (UACC-257 melanoma): > 100 µM
- TGI (UACC-62 melanoma): > 100 µM
- TGI (UO-31 renal): > 100 µM
